Measured values from ChEMBL document CHEMBL1212758 (Antimicrob Agents Chemother, 2010).
pEC50: −log10 of the molar value.

Assays:
[1] = tested on: Macacine alphaherpesvirus 1; test: Antiviral activity against Macacine herpesvirus 1 isolate MR6 infected in african green monkey Vero cells by plaque reduction assay; type: functional, organism-based; settings: Macacine alphaherpesvirus 1, isolate MR6, Vero
[2] = tested on: Macacine alphaherpesvirus 1; test: Antiviral activity against Macacine herpesvirus 1 isolate MC2 infected in african green monkey Vero cells by plaque reduction assay; type: functional, organism-based; settings: Macacine alphaherpesvirus 1, isolate MC2, Vero
[3] = tested on: Macacine alphaherpesvirus 1; test: Antiviral activity against Macacine herpesvirus 1 isolate A1 infected in african green monkey Vero cells by plaque reduction assay; type: functional, organism-based; settings: Macacine alphaherpesvirus 1, isolate A1, Vero
[4] = tested on: Macacine alphaherpesvirus 1; test: Antiviral activity against Macacine herpesvirus 1 isolate A4 infected in african green monkey Vero cells by plaque reduction assay; type: functional, organism-based; settings: Macacine alphaherpesvirus 1, isolate A4, Vero
[5] = tested on: Macacine alphaherpesvirus 1; test: Antiviral activity against Macacine herpesvirus 1 isolate MJ1 infected in african green monkey Vero cells by plaque reduction assay; type: functional, organism-based; settings: Macacine alphaherpesvirus 1, isolate MJ1, Vero
[6] = tested on: Macacine alphaherpesvirus 1; test: Antiviral activity against thymidine kinase deficient Macacine herpesvirus 1 isolate E2490 infected in african green monkey Vero cells by plaque reduction assay; type: functional, organism-based; settings: Macacine alphaherpesvirus 1, isolate E2490, Vero
[7] = tested on: Macacine alphaherpesvirus 1; test: Antiviral activity against Macacine herpesvirus 1 isolate MP1 infected in african green monkey Vero cells by plaque reduction assay; type: functional, organism-based; settings: Macacine alphaherpesvirus 1, isolate MP1, Vero
[8] = tested on: Macacine alphaherpesvirus 1; test: Antiviral activity against Macacine herpesvirus 1 isolate A6 infected in african green monkey Vero cells by plaque reduction assay; type: functional, organism-based; settings: Macacine alphaherpesvirus 1, isolate A6, Vero
[9] = tested on: Macacine alphaherpesvirus 1; test: Antiviral activity against Macacine herpesvirus 1 isolate MR2 infected in african green monkey Vero cells by plaque reduction assay; type: functional, organism-based; settings: Macacine alphaherpesvirus 1, isolate MR2, Vero
[10] = tested on: Macacine alphaherpesvirus 1; test: Antiviral activity against Macacine herpesvirus 1 isolate A3 infected in african green monkey Vero cells by plaque reduction assay; type: functional, organism-based; settings: Macacine alphaherpesvirus 1, isolate A3, Vero
[11] = tested on: Macacine alphaherpesvirus 1; test: Antiviral activity against Macacine herpesvirus 1 isolate MR8 infected in african green monkey Vero cells by plaque reduction assay; type: functional, organism-based; settings: Macacine alphaherpesvirus 1, isolate MR8, Vero
[12] = tested on: Macacine alphaherpesvirus 1; test: Antiviral activity against Macacine herpesvirus 1 isolate MJ2 infected in african green monkey Vero cells by plaque reduction assay; type: functional, organism-based; settings: Macacine alphaherpesvirus 1, isolate MJ2, Vero
[13] = tested on: Macacine alphaherpesvirus 1; test: Antiviral activity against Macacine herpesvirus 1 isolate MR11 infected in african green monkey Vero cells by plaque reduction assay; type: functional, organism-based; settings: Macacine alphaherpesvirus 1, isolate MR11, Vero
Human alphaherpesvirus 2 [14] = test: Antiviral activity against HSV2 infected in african green monkey Vero cells by plaque reduction assay; type: functional, organism-based; settings: Human alphaherpesvirus 2, Vero
[15] = tested on: Macacine alphaherpesvirus 1; test: Antiviral activity against Macacine herpesvirus 1 isolate MR1 infected in african green monkey Vero cells by plaque reduction assay; type: functional, organism-based; settings: Macacine alphaherpesvirus 1, isolate MR1, Vero
[16] = tested on: Macacine alphaherpesvirus 1; test: Antiviral activity against Macacine herpesvirus 1 isolate MR4 infected in african green monkey Vero cells by plaque reduction assay; type: functional, organism-based; settings: Macacine alphaherpesvirus 1, isolate MR4, Vero
[17] = tested on: Macacine alphaherpesvirus 1; test: Antiviral activity against Macacine herpesvirus 1 isolate A2 infected in african green monkey Vero cells by plaque reduction assay; type: functional, organism-based; settings: Macacine alphaherpesvirus 1, isolate A2, Vero
[18] = tested on: Macacine alphaherpesvirus 1; test: Antiviral activity against Macacine herpesvirus 1 isolate MR7 infected in african green monkey Vero cells by plaque reduction assay; type: functional, organism-based; settings: Macacine alphaherpesvirus 1, isolate MR7, Vero
[19] = tested on: Macacine alphaherpesvirus 1; test: Antiviral activity against Macacine herpesvirus 1 isolate MR10 infected in african green monkey Vero cells by plaque reduction assay; type: functional, organism-based; settings: Macacine alphaherpesvirus 1, isolate MR10, Vero
[20] = tested on: Macacine alphaherpesvirus 1; test: Antiviral activity against Macacine herpesvirus 1 isolate MJ3 infected in african green monkey Vero cells by plaque reduction assay; type: functional, organism-based; settings: Macacine alphaherpesvirus 1, isolate MJ3, Vero
[21] = tested on: Macacine alphaherpesvirus 1; test: Antiviral activity against Macacine herpesvirus 1 isolate E2490 infected in african green monkey Vero cells by plaque reduction assay; type: functional, organism-based; settings: Macacine alphaherpesvirus 1, isolate E2490, Vero
Human alphaherpesvirus 1 [22] = test: Antiviral activity against HSV1 infected in african green monkey Vero cells by plaque reduction assay; type: functional, organism-based; settings: Human alphaherpesvirus 1, Vero
[23] = tested on: Macacine alphaherpesvirus 1; test: Antiviral activity against Macacine herpesvirus 1 isolate MR3 infected in african green monkey Vero cells by plaque reduction assay; type: functional, organism-based; settings: Macacine alphaherpesvirus 1, isolate MR3, Vero
[24] = tested on: Macacine alphaherpesvirus 1; test: Antiviral activity against Macacine herpesvirus 1 isolate MC1 infected in african green monkey Vero cells by plaque reduction assay; type: functional, organism-based; settings: Macacine alphaherpesvirus 1, isolate MC1, Vero
[25] = tested on: Macacine alphaherpesvirus 1; test: Antiviral activity against Macacine herpesvirus 1 isolate MR9 infected in african green monkey Vero cells by plaque reduction assay; type: functional, organism-based; settings: Macacine alphaherpesvirus 1, isolate MR9, Vero
[26] = tested on: Macacine alphaherpesvirus 1; test: Antiviral activity against Macacine herpesvirus 1 isolate A5 infected in african green monkey Vero cells by plaque reduction assay; type: functional, organism-based; settings: Macacine alphaherpesvirus 1, isolate A5, Vero
[27] = tested on: Macacine alphaherpesvirus 1; test: Antiviral activity against Macacine herpesvirus 1 isolate MR5 infected in african green monkey Vero cells by plaque reduction assay; type: functional, organism-based; settings: Macacine alphaherpesvirus 1, isolate MR5, Vero
[28] = tested on: Macacine alphaherpesvirus 1; test: Ratio of acyclovir EC50 to compound EC50 for Macacine herpesvirus 1 isolate MR4 infected in african green monkey Vero cells; type: functional
[29] = tested on: Macacine alphaherpesvirus 1; test: Ratio of acyclovir EC50 to compound EC50 for Macacine herpesvirus 1 isolate MR2 infected in african green monkey Vero cells; type: functional
[30] = tested on: Macacine alphaherpesvirus 1; test: Ratio of acyclovir EC50 to compound EC50 for Macacine herpesvirus 1 isolate MR8 infected in african green monkey Vero cells; type: functional
[31] = tested on: Macacine alphaherpesvirus 1; test: Ratio of acyclovir EC50 to compound EC50 for Macacine herpesvirus 1 isolate MR6 infected in african green monkey Vero cells; type: functional
[32] = tested on: Macacine alphaherpesvirus 1; test: Ratio of acyclovir EC50 to compound EC50 for Macacine herpesvirus 1 isolate MC1 infected in african green monkey Vero cells; type: functional
[33] = tested on: Macacine alphaherpesvirus 1; test: Ratio of acyclovir EC50 to compound EC50 for Macacine herpesvirus 1 isolate A3 infected in african green monkey Vero cells; type: functional
[34] = tested on: Macacine alphaherpesvirus 1; test: Ratio of acyclovir EC50 to compound EC50 for Macacine herpesvirus 1 isolate A2 infected in african green monkey Vero cells; type: functional
[35] = tested on: Macacine alphaherpesvirus 1; test: Ratio of acyclovir EC50 to compound EC50 for Macacine herpesvirus 1 isolate A6 infected in african green monkey Vero cells; type: functional
[36] = tested on: Macacine alphaherpesvirus 1; test: Ratio of acyclovir EC50 to compound EC50 for Macacine herpesvirus 1 isolate MJ3 infected in african green monkey Vero cells; type: functional
Human alphaherpesvirus 2 [37] = test: Ratio of acyclovir EC50 to compound EC50 for HSV 2 infected in african green monkey Vero cells; type: functional
[38] = tested on: Macacine alphaherpesvirus 1; test: Ratio of acyclovir EC50 to compound EC50 for Macacine herpesvirus 1 isolate MJ2 infected in african green monkey Vero cells; type: functional
[39] = tested on: Macacine alphaherpesvirus 1; test: Ratio of acyclovir EC50 to compound EC50 for Macacine herpesvirus 1 isolate A5 infected in african green monkey Vero cells; type: functional
[40] = tested on: Macacine alphaherpesvirus 1; test: Ratio of acyclovir EC50 to compound EC50 for Macacine herpesvirus 1 isolate MR9 infected in african green monkey Vero cells; type: functional
[41] = tested on: Macacine alphaherpesvirus 1; test: Ratio of acyclovir EC50 to compound EC50 for Macacine herpesvirus 1 isolate MR11 infected in african green monkey Vero cells; type: functional
[42] = tested on: Macacine alphaherpesvirus 1; test: Ratio of acyclovir EC50 to compound EC50 for Macacine herpesvirus 1 isolate A4 infected in african green monkey Vero cells; type: functional
[43] = tested on: Macacine alphaherpesvirus 1; test: Ratio of acyclovir EC50 to compound EC50 for Macacine herpesvirus 1 isolate E2490 infected in african green monkey Vero cells; type: functional
[44] = tested on: Macacine alphaherpesvirus 1; test: Ratio of acyclovir EC50 to compound EC50 for Macacine herpesvirus 1 isolate MR7 infected in african green monkey Vero cells; type: functional
[45] = tested on: Macacine alphaherpesvirus 1; test: Ratio of acyclovir EC50 to compound EC50 for Macacine herpesvirus 1 isolate MR3 infected in african green monkey Vero cells; type: functional
[46] = tested on: Macacine alphaherpesvirus 1; test: Ratio of acyclovir EC50 to compound EC50 for Macacine herpesvirus 1 isolate MP1 infected in african green monkey Vero cells; type: functional
[47] = tested on: Macacine alphaherpesvirus 1; test: Ratio of acyclovir EC50 to compound EC50 for Macacine herpesvirus 1 isolate MR5 infected in african green monkey Vero cells; type: functional
[48] = tested on: Macacine alphaherpesvirus 1; test: Ratio of acyclovir EC50 to compound EC50 for Macacine herpesvirus 1 isolate MC2 infected in african green monkey Vero cells; type: functional
[49] = tested on: Macacine alphaherpesvirus 1; test: Ratio of acyclovir EC50 to compound EC50 for Macacine herpesvirus 1 isolate A1 infected in african green monkey Vero cells; type: functional
[50] = tested on: Macacine alphaherpesvirus 1; test: Ratio of acyclovir EC50 to compound EC50 for Macacine herpesvirus 1 isolate MJ1 infected in african green monkey Vero cells; type: functional
[51] = tested on: Macacine alphaherpesvirus 1; test: Ratio of acyclovir EC50 to compound EC50 for Macacine herpesvirus 1 isolate MR1 infected in african green monkey Vero cells; type: functional
[52] = tested on: Macacine alphaherpesvirus 1; test: Ratio of acyclovir EC50 to compound EC50 for Macacine herpesvirus 1 isolate MR10 infected in african green monkey Vero cells; type: functional
Human alphaherpesvirus 1 [53] = test: Ratio of acyclovir EC50 to compound EC50 for HSV1 infected in african green monkey Vero cells; type: functional

Nc1ncnc2c1ncn2[C@@H]1O[C@H](CO)[C@@H](O)[C@@H]1O [VIDARABINE]
pEC50 [1]: 4.58
pEC50 [2]: 4.58
pEC50 [3]: 4.58
pEC50 [4]: 4.58
pEC50 [5]: 4.58
pEC50 [6]: 4.42
pEC50 [7]: 4.58
pEC50 [8]: 4.58
pEC50 [9]: 4.58
pEC50 [10]: 4.58
pEC50 [11]: 4.58
pEC50 [12]: 4.58
pEC50 [13]: 4.58
pEC50 (Human alphaherpesvirus 2 [14]): 4.58
pEC50 [15]: 4.58
pEC50 [16]: 4.58
pEC50 [17]: 4.58
pEC50 [18]: 4.58
pEC50 [19]: 4.58
pEC50 [20]: 4.58
pEC50 [21]: 4.58
pEC50 (Human alphaherpesvirus 1 [22]): 4.58
pEC50 [23]: 4.58
pEC50 [24]: 4.58
pEC50 [25]: 4.58
pEC50 [26]: 4.58
pEC50 [27]: 4.58

Nc1nc(=O)n([C@@H]2O[C@H](CO)[C@@H](O)[C@@H]2F)cc1Br
Ratio EC50 [28]: 10
Ratio EC50 [29]: 10
Ratio EC50 [30]: 10
Ratio EC50 [31]: 10
Ratio EC50 [32]: 10
Ratio EC50 [33]: 10
Ratio EC50 [34]: 10
Ratio EC50 [35]: 10
Ratio EC50 [36]: 10
Ratio EC50 (Human alphaherpesvirus 2 [37]): 10
Ratio EC50 [38]: 10
Ratio EC50 [39]: 10
Ratio EC50 [40]: 10
Ratio EC50 [41]: 10
Ratio EC50 [42]: 10
Ratio EC50 [43]: 10
Ratio EC50 [44]: 10
Ratio EC50 [45]: 10
Ratio EC50 [46]: 10
Ratio EC50 [47]: 10
Ratio EC50 [48]: 10
Ratio EC50 [49]: 10
Ratio EC50 [50]: 10
Ratio EC50 [51]: 10
Ratio EC50 [52]: 10
Ratio EC50 (Human alphaherpesvirus 1 [53]): 10

CCc1cn([C@H]2O[C@@H](CO)[C@H](O)[C@H]2F)c(=O)[nH]c1=O (single isomer, unassigned)
Ratio EC50 [28]: 100
Ratio EC50 [29]: 100
Ratio EC50 [30]: 100
Ratio EC50 [31]: 100
Ratio EC50 [32]: 100
Ratio EC50 [33]: 100
Ratio EC50 [34]: 100
Ratio EC50 [35]: 100
Ratio EC50 [36]: 100
Ratio EC50 (Human alphaherpesvirus 2 [37]): 100
Ratio EC50 [38]: 100
Ratio EC50 [39]: 100
Ratio EC50 [40]: 100
Ratio EC50 [41]: 100
Ratio EC50 [42]: 100
Ratio EC50 [43]: 100
Ratio EC50 [44]: 100
Ratio EC50 [45]: 100
Ratio EC50 [46]: 100
Ratio EC50 [47]: 100
Ratio EC50 [48]: 100
Ratio EC50 [49]: 100
Ratio EC50 [50]: 100
Ratio EC50 [51]: 100
Ratio EC50 [52]: 100
Ratio EC50 (Human alphaherpesvirus 1 [53]): 100
